In PubChem BioAssay (NCI):
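Test compounds were applied to cells in 96-well plates for 48 hours at 5 doses. The concentration for full growth arrest is given as TGI.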

Legend:
Test in all cases: NCI-60 cell line screen, 48 h
DMS 114 small cell lung = tested on: DMS 114 small cell lung
M19-MEL melanoma = tested on: M19-MEL melanoma
DMS 273 small cell lung = tested on: DMS 273 small cell lung
LXFL 529 NSCLC = tested on: LXFL 529 NSCLC
KM20L2 colon = tested on: KM20L2 colon

| Structure (SMILES) | TGI (DMS 114 small cell lung) | TGI (M19-MEL melanoma) | TGI (DMS 273 small cell lung) | TGI (LXFL 529 NSCLC) | TGI (KM20L2 colon) |
| --- | --- | --- | --- | --- | --- |
| CCOC(=O)c1ncoc1[C@H]1COC(C)(C)O1 | > 100 µM | > 100 µM | > 100 µM | > 100 µM | > 100 µM |
| O=C(O)C(CS)NCc1c2ccccc2[n+]([O-])c2ccccc12 (stereo not given) | 68.6 µM | > 100 µM | > 100 µM | 84.3 µM | > 100 µM |
